One data set deals with CSNK2A1 (Homo sapiens, UniProt P68400). Put plainly: cell-based. The format is cell-based.
The next data set deals with CSNK2A2 (Homo sapiens, UniProt P19784). Put plainly: cell-based.
A further data set has as its system MHV-nLuc. Put plainly: microbe, parasite or virus in culture. The data set is classed as cell-based, mouse hepatitis virus (MHV). As to conditions: Murine coronavirus, 10 h, read-out: MHV replication (pIC50) (converted).
For data set [1], the system named is SARS-CoV-2 spike protein uptake. The format is cell-based, human.
The next data set deals with A549-ACE2 cells. The settings on record: ref [18]; cited from earlier work.
Data set [2] relates to SARS-CoV-2. As to conditions: human lung epithelial A549-ACE2 cells; ref [18]; cited from earlier work.
Another data set concerns Vero cells. As to conditions: ref [18]; cited from earlier work.
Data set [3] has as its system SARS-CoV-2. As to conditions: African green monkey kidney epithelial Vero cells infected with SARS-CoV-2; ref [18]; cited from earlier work.
A further data set relates to DBT cells. The settings on record: LDH assay, 10 h, concentrations up to 10 μM.

Some results are limits rather than exact numbers.

Sequence of CSNK2A1 (P68400 whole entry): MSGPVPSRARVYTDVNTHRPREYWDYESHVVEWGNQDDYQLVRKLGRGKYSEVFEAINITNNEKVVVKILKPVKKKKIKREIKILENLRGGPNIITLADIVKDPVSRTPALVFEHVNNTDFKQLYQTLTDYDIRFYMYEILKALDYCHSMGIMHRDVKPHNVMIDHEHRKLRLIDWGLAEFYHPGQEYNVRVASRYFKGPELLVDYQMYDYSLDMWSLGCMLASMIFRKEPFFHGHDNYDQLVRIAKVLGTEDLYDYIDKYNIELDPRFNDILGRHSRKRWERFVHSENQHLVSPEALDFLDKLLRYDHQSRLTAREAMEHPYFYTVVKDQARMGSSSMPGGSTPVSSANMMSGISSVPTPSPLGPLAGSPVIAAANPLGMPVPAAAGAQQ
Sequence of CSNK2A2 (P19784 whole entry): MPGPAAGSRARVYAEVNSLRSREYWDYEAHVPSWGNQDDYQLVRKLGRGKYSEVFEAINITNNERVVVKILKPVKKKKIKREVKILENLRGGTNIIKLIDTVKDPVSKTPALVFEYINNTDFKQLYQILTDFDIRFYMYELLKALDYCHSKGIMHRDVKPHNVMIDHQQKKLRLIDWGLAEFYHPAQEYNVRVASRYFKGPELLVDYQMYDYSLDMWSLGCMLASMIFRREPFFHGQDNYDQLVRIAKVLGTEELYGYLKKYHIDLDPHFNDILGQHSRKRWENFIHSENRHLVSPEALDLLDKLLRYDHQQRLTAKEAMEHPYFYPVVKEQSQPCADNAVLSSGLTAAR

`CCC(=O)Nc1cc(Nc2cc(NC3CC3)n3ncc(C#N)c3n2)ccc1N(C)CCN` [Compound 9]: on CSNK2A1, the IC50 is 3.98 nM.

`CCC(=O)Nc1cc(Nc2cc(NC3CC3)n3ncc(C#N)c3n2)ccc1N(C)CCN1CCCC1` [Compound 11]: the IC50 against CSNK2A2 and at CSNK2A1 was 100 nM throughout.

For the molecule `CCC(=O)Nc1cc(Nc2cc(NC3CC3)n3ncc(C#N)c3n2)ccc1N(C)CCN1CCCCC1` [Compound 12], the IC50 against CSNK2A1 is 251 nM.

`CCC(=O)Nc1cc(Nc2cc(NC3CC3)n3ncc(C#N)c3n2)ccc1N1CCNCC1` [Compound 14] showed an IC50 at CSNK2A1 of 158 nM.

In the case of `CCC(=O)Nc1cc(Nc2cc(NC3CC3)n3ncc(C#N)c3n2)ccc1N1CCCC(NC)C1` (stereo not drawn) [Compound 15], the IC50 against CSNK2A2 is 15.8 nM; against CSNK2A1 it was 2 nM. Further, the “selectivity for CSNK2A1 over CSNK2A2” value at CSNK2A1 (from nanoBRET values) is given as 6–8 fold.

Take `CC(=O)Nc1ccc2ccn(-c3cc(NC4CC(F)(F)C4)n4ncc(C#N)c4n3)c2c1` [Compound 18]: the figures for the IC50 against CSNK2A2 and against CSNK2A1 were 100 nM and 39.8 nM, respectively.

With `CC(=O)Nc1ccc2ccn(-c3cc(NC45CC(C4)C5)n4ncc(C#N)c4n3)c2c1` [Compound 19], the IC50 on CSNK2A2 is 79.4 nM; against CSNK2A1, 158 nM.

`CC(=O)Nc1ccc2ccn(-c3cc(NC4(C)CC4)n4ncc(C#N)c4n3)c2c1` [Compound 20]: the IC50 against CSNK2A2 is 1580 nM; on CSNK2A1, 501 nM.

For the molecule `CC(=O)Nc1ccc2ccn(-c3cc(NCC4CCOC4)n4ncc(C#N)c4n3)c2c1` (stereo not drawn) [Compound 25], the IC50 against CSNK2A2 is 251 nM; on CSNK2A1, 31.6 nM.

As to `CC(=O)Nc1ccc2ccn(-c3cc(NCC4CCOCC4)n4ncc(C#N)c4n3)c2c1` [Compound 26], the IC50 against CSNK2A2 is 2000 nM; against CSNK2A1, 100 nM.

In the case of `CC(=O)Nc1ccc2ccn(-c3cc(NC4CCN(C(C)=O)CC4)n4ncc(C#N)c4n3)c2c1` [Compound 28], the IC50 is 398 nM against CSNK2A2 and 63.1 nM against CSNK2A1.

For the molecule `CC(=O)Nc1ccc2ccn(-c3cc(NCc4cnn(C)c4)n4ncc(C#N)c4n3)c2c1` [Compound 29], the values for the IC50 at CSNK2A2 and against CSNK2A1 were 200 nM and 158 nM, respectively.

Regarding `CC(=O)Nc1ccc2ccn(-c3cc(N[C@H](C)C#N)n4ncc(C#N)c4n3)c2c1` [Compound 30], the IC50 against CSNK2A2 is 79.4 nM; at CSNK2A1, 126 nM.

Turning to `CC(=O)Nc1ccc2ccn(-c3cc(Sc4ccccc4)n4ncc(C#N)c4n3)c2c1` [Compound 33], the IC50 at CSNK2A2 and on CSNK2A1 was 6310 nM in each case.

`CCC(=O)Nc1cc(Nc2cc(NC3CC3)n3ncc(C#N)c3n2)ccc1C` [SGC-CK2–1]: the IC50 with MHV-nLuc is 126 nM. Also, the “decrease in spike protein uptake” value in data set [1] is listed as 70–80%.

With `O=C(O)c1ccc2c(c1)nc(Nc1cccc(Cl)c1)c1ccncc12` [silmitasertib], the cell toxicity entry in the data set with A549-ACE2 cells and in the data set on Vero cells was “cell toxicity at micromolar doses” throughout. In the data set with SARS-CoV-2 [2], the “inhibition of SARS-CoV-2 infection (pIC50)” value is below 5. For the same molecule, the “antiviral activity, SARS-CoV-2 (pIC50)” value with SARS-CoV-2 [3] is 5.6. Besides, the “effect on cell viability” value in the data set with DBT cells is given as “no effect on cell viability”.
